Source: publication PMC11243327, “Design, Synthesis, Antitumor, and Antiplasmodial Evaluation of New 7-Chloroquinoline–Benzimidazole Hybrids” (Molecules, 2024)
Where two headings read alike, the source gives them in different places.

Key:
[1] = tested on: HL-60 (acute promyelocytic leukemia); experiment: Antiproliferative MTT assay, HL-60; type: cell-based, human; settings: Homo sapiens, HL-60, 72 h, mean ± SD of three experiments
Description: (§1) The effect of the new synthesized compounds was tested on five human tumor cell lines, HeLa (human cervical adenocarcinoma; from ATCC), CaCo-2 (human colorectal adenocarcinoma), HL-60 (acute promyelocytic leukemia), HuT78 (T-cell lymphoma), and THP-1 (acute monocytic leukemia), as well as one non-tumor cell line, MRC-5 (human fetal lung fibroblasts). The MRC-5 cells were used between 24 and 26 passages. The cells were cultured in two different types of media: DMEM (Gibco Thermo Fisher Scinetific Inc., Runcorn, UK) and RPMI 1640 (Gibco, Thermo Fisher Scinetific Inc., UK). Both media were supplemented with 2 mM glutamine, fetal bovine serum (10%; heat inactivated), and antibiotics (100 U penicillin and 0.1 mg streptomycin). RPMI 1640 was additionally supplemented with 10 mM HEPES and 1 mM sodium pyruvate. Cells growing in a monolayer were cultured in DMEM, while cells growing in suspension were cultured in RPMI 1640. Cells were grown in humidified atmosphere under the conditions of 37 °C/5% CO2 gas in a CO2 incubator (IGO 150 CELLlife^TM, JOUAN, Thermo Fisher Scientific, Waltham, MA, USA).
(§2) Growth-inhibitory activity was assessed using a slightly modified procedure based on the National Cancer Institute’s protocol. Briefly, cells were seeded in 96-well microtiter plates and incubated for 24 h. They were then treated with 10^−7 to 10^−4 M concentrations of the tested compounds for an additional 72 h. After the treatment period, the effects of the tested compounds on the growth rate of the cells were examined using the MTT assay. Absorbance was measured at 595 nm using a microplate reader. The IC50 value, which represents a 50% inhibition of cell growth, and QC calculation were performed using the GraphPadPrism software (La Jolla, USA), v. 5.03. and Excel software, Office 365. The selectivity index was calculated according to the following formula: SI=IC50 value of normal cell line/IC50 value of cancer cell line
(§3) The effect of each concentration was analyzed by plotting the logarithm of the concentration of the evaluated compound against the corresponding percentage inhibition value using least squares.

[2] = tested on: MRC-5 (human fetal lung fibroblasts); experiment: Antiproliferative MTT assay, MRC-5; type: cell-based; settings: Homo sapiens, MRC5, non-tumor cell line, 72 h, mean ± SD of three experiments
Description: as §1, §2, §3

[3] = tested on: P. falciparum 3D7 (CQ-susceptible), erythrocytic stage; experiment: Antiplasmodial HRP2 assay, Pf3D7; type: cell-based, Plasmodium falciparum; settings: Plasmodium falciparum, 3D7, 72 h; chloroquine-sensitive strain, three days incubation, HRP2-ELISA, mean ± SD, n ≥ 2; read-out: IC50 Pf3D7
Description: (§4) Method used to evaluate the antiplasmodial activity of quinoline–benzimidazole hybrids against two P. falciparum strains, chloroquine-sensitive (Pf3D7) and chloroquine-resistant (PfDd2), was previously described. […] Chloroquine was used as a positive control.
(§5) In brief, 96-well plates were pre-coated with the tested compounds at 1:3 dilution before ring-stage parasites were added to the complete culture medium at a hematocrit of 1.5% and a parasitemia of 0.05%. […] All compounds were analyzed in duplicate in at least two independent experiments. The IC50 was determined by nonlinear regression analysis of the logarithmic concentration-response curves using the drc package v3.0-1 of R v4.1.0 [56].

[4] = tested on: P. falciparum Dd2 (multiresistant), erythrocytic stage; experiment: Antiplasmodial HRP2 assay, PfDd2; type: cell-based, Plasmodium falciparum; settings: Plasmodium falciparum, DD2, 72 h; chloroquine-resistant strain, three days incubation, HRP2-ELISA, mean ± SD, n ≥ 2; read-out: IC50 PfDd2
Description: as §4, §5

[5] = tested on: HeLa (human cervical adenocarcinoma); settings: previously published result, cited from earlier work
[6] = tested on: THP-1 (acute monocytic leukemia); experiment: Antiproliferative MTT assay, THP-1; type: cell-based, human; settings: Homo sapiens, THP-1, 72 h, mean ± SD of three experiments
Description: as §1, §2, §3

HuT78 (T-cell lymphoma) [7] = experiment: Antiproliferative MTT assay, Hut78; type: cell-based, human; settings: Homo sapiens, HuT78, 72 h, mean ± SD of three experiments
Description: as §1, §2, §3

[8] = tested on: CaCo-2 (human colorectal adenocarcinoma); settings: previously published result, cited from earlier work
[9] = Antiproliferative MTT assay, whole panel of cell lines; type: cell-based; settings: human, range over the cell lines tested, read-out: IC50 (cytotoxicity) across non-tumor and tumor cell lines
Description: as §1, with “Cells growing in a monolayer were cultured in DMEM, while cells growing in suspension were cultured in RPMI 1640. Cells were grown in humidified atmosphere under the conditions of 37 °C/5% CO2 gas in a CO2 incubator (IGO 150 CELLlife^TM, JOUAN, Thermo Fisher Scientific, Waltham, MA, USA).” left out
Growth-inhibitory activity was assessed using a slightly modified procedure based on the National Cancer Institute’s protocol. […] Absorbance was measured at 595 nm using a microplate reader. […] The selectivity index was calculated according to the following formula: SI=IC50 value of normal cell line/IC50 value of cancer cell line
as §3

[10] = tested on: CaCo-2 (human colorectal adenocarcinoma); experiment: Antiproliferative MTT assay, CaCo-2; type: cell-based; settings: Homo sapiens, Caco-2, 72 h, mean ± SD of three experiments
Description: as §1, §2, §3

[11] = tested on: HeLa (human cervical adenocarcinoma); experiment: Antiproliferative MTT assay, HeLa; type: cell-based; settings: Homo sapiens, HeLa, 72 h, mean ± SD of three experiments
Description: as §1, §2, §3

[12] = tested on: MRC-5 (human fetal lung fibroblasts); set-up: method as in PMID 36677600; settings: previously published result, ref [19]; cited from earlier work
[13] = tested on: HL-60 (acute promyelocytic leukemia); set-up: method as in PMID 36677600; settings: previously published result, ref [19]; cited from earlier work
[14] = tested on: THP-1 (acute monocytic leukemia); set-up: method as in PMID 36677600; settings: previously published result, ref [19]; cited from earlier work
HuT78 (T-cell lymphoma) [15] = tested on: HuT78 (T-cell lymphoma); set-up: method as in PMID 36677600; settings: previously published result, ref [19]; cited from earlier work

N=C(NC1CCCC1)c1ccc2nc(-c3ccc(OCCNc4ccnc5cc(Cl)ccc45)cc3)[nH]c2c1 [Compound 10d]
IC50 [1]: > 100 µM
IC50 [2]: 99.2 ± 8.3 µM
IC50 [3]: 0.0585 ± 0.0059 µM
IC50 [4]: 0.0369 ± 0.0177 µM
IC50 ([5]; ref [18]): > 100 µM
IC50 [6]: > 100 µM
IC50 (HuT78 (T-cell lymphoma) [7]): 92 ± 6.1 µM
IC50 ([8]; ref [18]): > 100 µM

COc1cc(-c2nc3ccc(C(=N)NC4CCCC4)cc3[nH]2)ccc1OCCCNc1ccnc2cc(Cl)ccc12 [Compound 15d]
IC50 [1]: 19.5 ± 1.1 µM
IC50 [2]: 95.2 ± 9.7 µM
IC50 [3]: 0.0287 ± 0.0094 µM
IC50 at 72 h [9]: 12.8 to 100 µM
IC50 [4]: 0.0229 ± 0.0043 µM
IC50 [6]: 29.6 ± 0.3 µM
IC50 (HuT78 (T-cell lymphoma) [7]): 12.8 ± 5.5 µM
IC50 [10]: > 100 µM
IC50 [11]: > 100 µM

Clc1ccc2c(NCCOc3ccc(-c4nc5ccc(Cl)cc5[nH]4)cc3Br)ccnc2c1 [Compound 11b, N-{[2-bromo-4-(5(6)-chloro-1H-benzo[d]imidazole-2-yl)phenoxy]ethyl}-7-chloroquinolin-4-amine]
IC50 [1]: 1.3 ± 0.9 µM
IC50 [2]: 3 ± 0.9 µM
melting point: 238 to 240 °C
IC50 [3]: 0.0873 ± 0.0033 µM
IC50 [4]: 0.0883 ± 0.0031 µM
IC50 [6]: 4.4 ± 5.1 µM
IC50 (HuT78 (T-cell lymphoma) [7]): 5.8 ± 1.9 µM
IC50 [10]: 13.3 ± 2.5 µM
IC50 [11]: 5.4 ± 4.6 µM

COc1cc(-c2nc3ccc(Cl)cc3[nH]2)ccc1OCCCNc1ccnc2cc(Cl)ccc12 [Compound 15b, 7-chloro-N-{[4-(5(6)-chloro-benzo[d]imidazole-2-yl)-2-methoxyphenoxy]propyl}quinolin-4-amine]
IC50 [1]: 0.2 ± 0.1 µM
IC50 [2]: 0.3 µM
melting point: 190 to 192 °C
IC50 [3]: 0.0047 ± 0.0015 µM
IC50 [4]: 0.0052 ± 0.0005 µM
IC50 [6]: 2.5 ± 0.3 µM
IC50 (HuT78 (T-cell lymphoma) [7]): 0.7 ± 0.4 µM
IC50 [10]: 1.1 ± 0.6 µM
IC50 [11]: 0.3 ± 0.1 µM

Clc1ccc2c(NCCCOc3ccc(-c4nc5ccccc5[nH]4)cc3)ccnc2c1 [Compound 13a]
IC50 [1]: 0.4 ± 0.2 µM
IC50 [2]: 0.3 ± 0.2 µM
melting point: 200 to 202 °C
IC50 [3]: 0.0026 ± 0.0007 µM
IC50 [4]: 0.0048 ± 0.0003 µM
IC50 [6]: 3 ± 0.8 µM
IC50 (HuT78 (T-cell lymphoma) [7]): 1.6 ± 0.8 µM
IC50 [10]: 1.1 ± 0.4 µM
IC50 [11]: 3 ± 2.3 µM

Clc1ccc2c(NCCCOc3ccc(-c4nc5ccc(Cl)cc5[nH]4)cc3)ccnc2c1 [Compound 13b]
IC50 [1]: 0.2 ± 0.1 µM
IC50 [2]: 0.4 ± 0.1 µM
melting point: 198 to 200 °C
IC50 [3]: 0.0024 ± 0.0014 µM
IC50 [4]: 0.0039 ± 0.0011 µM
IC50 [6]: 2.1 ± 0.7 µM
IC50 (HuT78 (T-cell lymphoma) [7]): 0.3 ± 0.2 µM
IC50 [10]: 1.6 ± 0.4 µM
IC50 [11]: 0.6 ± 0.1 µM

Clc1ccc2c(NCCOc3ccc(-c4nc5ccc(Cl)cc5[nH]4)cc3)ccnc2c1 [Compound 10b, 7-chloro-N-{2-[4-(5(6)-chloro-1H-benzo[d]imidazole-2-yl)phenoxy]ethyl}quinolin-4-amine]
IC50 [1]: 2 ± 0.4 µM
IC50 [2]: 4 ± 1.1 µM
melting point: 222 to 224 °C
IC50 [3]: 0.0035 ± 0.0015 µM
IC50 [4]: 0.0049 ± 0.0008 µM
IC50 [6]: 3.4 ± 0.8 µM
IC50 (HuT78 (T-cell lymphoma) [7]): 1.6 ± 1.2 µM
IC50 [10]: 1.9 ± 0.2 µM
IC50 [11]: 2.7 ± 0.2 µM

Clc1ccc2c(NCCOc3ccc(-c4nc5ccccc5[nH]4)cc3)ccnc2c1 [Compound 10a]
IC50 [1]: 1.3 ± 0.9 µM
IC50 [2]: 3.1 ± 0.3 µM
melting point: 171 to 173 °C
IC50 [3]: 0.0027 ± 0.0002 µM
IC50 [4]: 0.0033 ± 0.0001 µM
IC50 [6]: 2.4 ± 0.2 µM
IC50 (HuT78 (T-cell lymphoma) [7]): 2.8 ± 0.5 µM
IC50 [10]: 6.1 ± 4.9 µM
IC50 [11]: 3.4 ± 0.5 µM

O=c1[nH]cc(F)c(=O)[nH]1 [Compound 5-FU, 5-fluorouracil]
IC50 [12]: 54.1 µM
IC50 [13]: 76.4 µM
IC50 [14]: > 100 µM
IC50 ([5]; ref [19]): 8.2 µM
IC50 ([8]; ref [19]): 5.9 µM
IC50 (HuT78 (T-cell lymphoma) [15]): > 100 µM

COc1ccc2nc(-c3ccc(OCCCNc4ccnc5cc(Cl)ccc45)c(Br)c3)[nH]c2c1 [Compound 14c, N-{[2-bromo-4-(5(6)-methoxy-1H-benzo[d]imidazole-2-yl)phenoxy]propyl}-7-chloroquinolin-4-amine]
IC50 [1]: 0.3 ± 0.1 µM
IC50 [2]: 0.4 ± 0.1 µM
melting point: 230 °C (dec.)
IC50 [3]: 0.0114 ± 0.004 µM
IC50 [4]: 0.0118 ± 0.0032 µM
IC50 [6]: 5.2 ± 1.8 µM
IC50 (HuT78 (T-cell lymphoma) [7]): 0.6 ± 0.1 µM
IC50 [10]: 1.6 ± 0.9 µM
IC50 [11]: 0.8 ± 0.7 µM

COc1cc(-c2nc3ccccc3[nH]2)ccc1OCCNc1ccnc2cc(Cl)ccc12 [Compound 12a, N-{[4-(1H-benzo[d]imidazole-2-yl)-2-methoxyphenoxy]ethyl}-7-chloroquinolin-4-amine]
IC50 [1]: 2 ± 0.3 µM
IC50 [2]: 3.8 ± 0.4 µM
melting point: 210 to 212 °C
IC50 [3]: 0.0145 ± 0.004 µM
IC50 [4]: 0.0912 ± 0.0095 µM
IC50 [6]: 3 ± 0.6 µM
IC50 (HuT78 (T-cell lymphoma) [7]): 4.2 ± 2.1 µM
IC50 [10]: 2 ± 0.3 µM
IC50 [11]: 2.2 ± 0.1 µM

COc1cc(-c2nc3ccc(Cl)cc3[nH]2)ccc1OCCNc1ccnc2cc(Cl)ccc12 [Compound 12b, 7-chloro-N-{[4-(5(6)-chloro-benzo[d]imidazole-2-yl)-2-methoxyphenoxy]ethyl}quinolin-4-amine]
IC50 [1]: 3.3 ± 1.1 µM
IC50 [2]: 3 ± 1.6 µM
melting point: 222 °C
IC50 [3]: 0.0111 ± 0.0003 µM
IC50 [4]: 0.0215 ± 0.0025 µM
IC50 [6]: 6.1 ± 6.9 µM
IC50 (HuT78 (T-cell lymphoma) [7]): 3.7 ± 5.2 µM
IC50 [10]: 4.7 ± 4 µM
IC50 [11]: 5.6 ± 1.3 µM

Clc1ccc2c(NCCCOc3ccc(-c4nc5ccc(Cl)cc5[nH]4)cc3Br)ccnc2c1 [Compound 14b, N-{[2-bromo-4-(5(6)-chloro-1H-benzo[d]imidazole-2-yl)phenoxy]propyl}-7-chloroquinolin-4-amine]
IC50 [1]: 0.4 ± 0.1 µM
IC50 [2]: 2 ± 1.8 µM
melting point: 219 to 221 °C
IC50 [3]: 0.005 ± 0.0014 µM
IC50 [4]: 0.0142 ± 0.0012 µM
IC50 [6]: 6.8 ± 3.5 µM
IC50 (HuT78 (T-cell lymphoma) [7]): 0.9 ± 0.6 µM
IC50 [10]: 1.5 ± 1.1 µM
IC50 [11]: 1.5 ± 1 µM
